Data on twelve molecules can be found in ChEMBL document CHEMBL3286158, “Novel pyridyl- or isoquinolinyl-substituted indolines and indoles as potent and selective aldosterone synthase inhibitors” (J Med Chem, 2014).

Data set [1] in a line: Half life in human liver microsomes at 1 uM by LC-MS/MS analysis. In general terms: Liver microsomes are vesicles of endoplasmic reticulum, rich in cytochrome P450 enzymes.
For a further data set, the target named is T1, CYP17 (Homo sapiens, UniProt P05093).
T1 sequence (P05093 whole entry): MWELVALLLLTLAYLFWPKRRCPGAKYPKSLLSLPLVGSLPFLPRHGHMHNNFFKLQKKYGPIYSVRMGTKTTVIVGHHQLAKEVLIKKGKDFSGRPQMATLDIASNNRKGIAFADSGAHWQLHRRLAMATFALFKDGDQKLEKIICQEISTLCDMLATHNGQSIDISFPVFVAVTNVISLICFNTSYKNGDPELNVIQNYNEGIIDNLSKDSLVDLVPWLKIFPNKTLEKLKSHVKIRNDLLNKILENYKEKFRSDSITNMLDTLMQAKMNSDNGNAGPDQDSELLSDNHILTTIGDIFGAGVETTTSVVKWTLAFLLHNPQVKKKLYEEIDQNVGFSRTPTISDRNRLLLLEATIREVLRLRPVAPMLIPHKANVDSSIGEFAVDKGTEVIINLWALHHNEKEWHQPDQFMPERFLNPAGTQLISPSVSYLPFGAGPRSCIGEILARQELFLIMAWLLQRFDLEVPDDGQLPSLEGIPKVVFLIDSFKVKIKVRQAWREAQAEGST
Kind of data set: Inhibition of human CYP17 expressed in Escherichia coli co-expressing NADPH-P450 reductase at 2 uM using progesterone as substrate. Particulars: probe progesterone.

Data set [2] deals with T2, Cytochrome P450 11B2, mitochondrial (Homo sapiens, UniProt P19099).
T2 sequence (P19099 whole entry): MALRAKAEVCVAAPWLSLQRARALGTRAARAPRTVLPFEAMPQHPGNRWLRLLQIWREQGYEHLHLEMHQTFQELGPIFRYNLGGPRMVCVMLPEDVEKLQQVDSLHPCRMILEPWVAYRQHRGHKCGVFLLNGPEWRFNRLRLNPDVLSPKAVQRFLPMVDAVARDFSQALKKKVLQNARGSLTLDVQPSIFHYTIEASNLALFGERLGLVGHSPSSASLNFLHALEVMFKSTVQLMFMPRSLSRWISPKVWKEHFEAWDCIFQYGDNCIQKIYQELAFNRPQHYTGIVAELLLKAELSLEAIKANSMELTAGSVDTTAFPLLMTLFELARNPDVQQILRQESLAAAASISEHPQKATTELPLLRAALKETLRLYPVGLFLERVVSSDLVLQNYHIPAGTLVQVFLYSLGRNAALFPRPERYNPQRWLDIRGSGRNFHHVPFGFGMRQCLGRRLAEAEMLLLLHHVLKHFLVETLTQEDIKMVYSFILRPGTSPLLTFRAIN
The data set is described as follows: Inhibition of human CYP11B2 expressed in hamster V79MZh cells using deoxycorticosterone as substrate at 500 nM. In kind it is cell-based.

In another data set the target is T3, CYP11B1 (Homo sapiens, UniProt P15538).
T3 sequence (P15538 whole entry): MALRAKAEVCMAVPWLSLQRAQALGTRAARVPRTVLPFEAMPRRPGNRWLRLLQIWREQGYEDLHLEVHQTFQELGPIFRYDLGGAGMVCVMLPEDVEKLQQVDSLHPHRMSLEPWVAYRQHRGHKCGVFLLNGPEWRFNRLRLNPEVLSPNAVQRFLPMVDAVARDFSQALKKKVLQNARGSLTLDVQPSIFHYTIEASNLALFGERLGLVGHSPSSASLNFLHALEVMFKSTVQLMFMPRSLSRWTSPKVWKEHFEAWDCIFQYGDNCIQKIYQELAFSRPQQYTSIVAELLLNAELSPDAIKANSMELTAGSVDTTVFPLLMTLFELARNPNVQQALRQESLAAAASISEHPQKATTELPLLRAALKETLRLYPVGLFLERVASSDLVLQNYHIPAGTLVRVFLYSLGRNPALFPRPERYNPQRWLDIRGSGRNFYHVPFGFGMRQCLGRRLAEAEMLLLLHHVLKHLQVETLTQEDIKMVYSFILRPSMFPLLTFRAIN
The data set is described as follows: Inhibition of human CYP11B1 expressed in hamster V79MZh cells using deoxycorticosterone as substrate at 500 nM. It is filed as cell-based. Particulars: hamster V79MZh cells expressing human CYP11B1, probe deoxycorticosterone.

Another data set deals with T4, CYP19 (Homo sapiens, UniProt P11511).
T4 sequence (P11511 whole entry): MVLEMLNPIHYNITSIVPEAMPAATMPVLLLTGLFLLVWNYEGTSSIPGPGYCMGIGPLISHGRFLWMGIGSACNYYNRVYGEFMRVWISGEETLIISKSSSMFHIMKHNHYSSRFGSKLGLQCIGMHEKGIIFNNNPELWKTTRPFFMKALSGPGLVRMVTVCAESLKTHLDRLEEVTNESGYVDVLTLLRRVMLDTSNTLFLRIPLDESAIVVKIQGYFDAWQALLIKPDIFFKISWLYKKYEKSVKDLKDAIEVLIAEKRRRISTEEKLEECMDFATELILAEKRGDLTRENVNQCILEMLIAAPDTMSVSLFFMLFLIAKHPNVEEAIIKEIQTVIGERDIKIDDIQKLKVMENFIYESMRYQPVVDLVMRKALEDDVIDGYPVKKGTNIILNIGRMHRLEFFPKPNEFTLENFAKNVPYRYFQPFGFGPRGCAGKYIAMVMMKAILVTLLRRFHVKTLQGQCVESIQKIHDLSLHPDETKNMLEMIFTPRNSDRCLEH
Kind of data set: Inhibition of CYP19 in human placental microsomes at 500 nM using [1beta-3H]androstenedione as substrate. Particulars: probe [1beta-3H]androstenedione. Also noted: species or system Placenta.

Data set [3] addresses T2, Cytochrome P450 11B2, mitochondrial.
Data set [4] deals with T5, Cytochrome P450 11B1, mitochondrial (Homo sapiens, UniProt P15538).
T5 sequence (P15538 whole entry): T3 sequence (P15538 whole entry)

A further data set addresses Cytochrome P450 2C9 (Homo sapiens, UniProt P11712). Kind of data set: Inhibition of CYP2C9 using recombinant human CYP enzyme at a single time point by LC-MS/MS analysis.
Data set [5] is described as follows: Intrinsic clearance in human liver microsomes at 1 uM by LC-MS/MS analysis. Particulars: read-out: CLH.
For a further data set, the target named is T6, Cytochrome P450 1A2 (Homo sapiens, UniProt P05177).
T6 sequence (P05177 whole entry): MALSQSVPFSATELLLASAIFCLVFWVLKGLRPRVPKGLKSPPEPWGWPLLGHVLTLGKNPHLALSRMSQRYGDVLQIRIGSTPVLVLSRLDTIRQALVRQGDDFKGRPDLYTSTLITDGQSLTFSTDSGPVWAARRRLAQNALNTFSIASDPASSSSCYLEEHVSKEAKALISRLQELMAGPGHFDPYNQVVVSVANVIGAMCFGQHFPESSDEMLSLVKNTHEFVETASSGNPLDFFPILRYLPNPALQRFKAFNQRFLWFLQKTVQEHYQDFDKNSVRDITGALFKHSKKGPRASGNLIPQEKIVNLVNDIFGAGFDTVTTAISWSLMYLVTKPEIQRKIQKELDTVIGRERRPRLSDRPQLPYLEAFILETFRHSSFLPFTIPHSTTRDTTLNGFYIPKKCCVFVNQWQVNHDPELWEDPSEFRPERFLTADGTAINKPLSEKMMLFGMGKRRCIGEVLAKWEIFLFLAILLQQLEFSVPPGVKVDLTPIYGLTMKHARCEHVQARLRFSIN
The data set is described as follows: Inhibition of CYP1A2 using recombinant human CYP enzyme at a single time point by LC-MS/MS analysis.

In a further data set the target is Cytochrome P450 2C19 (Homo sapiens, UniProt P33261). Kind of data set: Inhibition of CYP2C19 using recombinant human CYP enzyme at a single time point by LC-MS/MS analysis.
Chain of Cytochrome P450 2C19 (P33261 whole entry): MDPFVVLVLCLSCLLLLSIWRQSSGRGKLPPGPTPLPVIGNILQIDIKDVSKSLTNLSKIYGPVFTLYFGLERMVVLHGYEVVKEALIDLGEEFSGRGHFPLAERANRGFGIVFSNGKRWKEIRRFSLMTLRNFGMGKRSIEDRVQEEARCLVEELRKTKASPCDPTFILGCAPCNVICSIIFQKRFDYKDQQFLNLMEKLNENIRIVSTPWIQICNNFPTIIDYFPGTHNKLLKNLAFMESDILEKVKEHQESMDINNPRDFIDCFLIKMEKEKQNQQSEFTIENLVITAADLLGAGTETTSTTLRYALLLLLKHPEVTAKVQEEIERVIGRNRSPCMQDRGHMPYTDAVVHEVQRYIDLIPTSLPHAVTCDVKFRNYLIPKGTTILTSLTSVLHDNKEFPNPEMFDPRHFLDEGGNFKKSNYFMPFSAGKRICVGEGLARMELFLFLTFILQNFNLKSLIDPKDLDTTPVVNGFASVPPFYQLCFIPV
The target in the next data set is Cytochrome P450 3A4 (Homo sapiens, UniProt P08684). Kind of data set: Inhibition of CYP3A4 using recombinant human CYP enzyme at a single time point by LC-MS/MS analysis.
Chain of Cytochrome P450 3A4 (P08684 whole entry): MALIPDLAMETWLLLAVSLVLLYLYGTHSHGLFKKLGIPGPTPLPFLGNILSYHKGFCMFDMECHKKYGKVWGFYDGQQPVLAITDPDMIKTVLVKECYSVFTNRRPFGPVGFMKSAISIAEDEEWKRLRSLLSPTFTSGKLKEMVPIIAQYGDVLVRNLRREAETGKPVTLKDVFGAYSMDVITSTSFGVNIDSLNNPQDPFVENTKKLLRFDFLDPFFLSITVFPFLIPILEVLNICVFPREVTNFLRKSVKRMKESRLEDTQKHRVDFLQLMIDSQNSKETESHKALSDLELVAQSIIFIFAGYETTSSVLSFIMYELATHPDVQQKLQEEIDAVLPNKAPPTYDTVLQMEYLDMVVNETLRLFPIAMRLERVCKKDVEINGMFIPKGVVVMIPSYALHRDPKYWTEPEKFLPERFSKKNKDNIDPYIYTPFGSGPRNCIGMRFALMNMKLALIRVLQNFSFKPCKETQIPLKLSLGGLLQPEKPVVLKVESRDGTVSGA
The next data set deals with Cytochrome P450 2D6 (Homo sapiens, UniProt P10635). Kind of data set: Inhibition of CYP2D6 using recombinant human CYP enzyme at a single time point by LC-MS/MS analysis.
Chain of Cytochrome P450 2D6 (P10635 whole entry): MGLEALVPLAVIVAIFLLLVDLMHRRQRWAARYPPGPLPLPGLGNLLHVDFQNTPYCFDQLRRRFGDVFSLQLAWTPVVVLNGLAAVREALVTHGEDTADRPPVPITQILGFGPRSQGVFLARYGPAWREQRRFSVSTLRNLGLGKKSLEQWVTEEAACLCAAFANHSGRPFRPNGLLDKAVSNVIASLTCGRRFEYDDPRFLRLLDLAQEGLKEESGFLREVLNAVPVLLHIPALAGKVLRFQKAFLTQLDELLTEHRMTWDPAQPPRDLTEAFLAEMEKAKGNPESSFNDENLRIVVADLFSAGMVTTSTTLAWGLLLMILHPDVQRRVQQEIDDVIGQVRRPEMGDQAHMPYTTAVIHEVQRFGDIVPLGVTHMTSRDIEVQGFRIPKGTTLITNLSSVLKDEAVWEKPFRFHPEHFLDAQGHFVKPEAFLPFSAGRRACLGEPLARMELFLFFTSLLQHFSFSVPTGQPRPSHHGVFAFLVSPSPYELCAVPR

The structures appear in SMILES notation. A value given as a limit tells only on which side of the number the result lay.

Chain of Cytochrome P450 2C9 (P11712 whole entry): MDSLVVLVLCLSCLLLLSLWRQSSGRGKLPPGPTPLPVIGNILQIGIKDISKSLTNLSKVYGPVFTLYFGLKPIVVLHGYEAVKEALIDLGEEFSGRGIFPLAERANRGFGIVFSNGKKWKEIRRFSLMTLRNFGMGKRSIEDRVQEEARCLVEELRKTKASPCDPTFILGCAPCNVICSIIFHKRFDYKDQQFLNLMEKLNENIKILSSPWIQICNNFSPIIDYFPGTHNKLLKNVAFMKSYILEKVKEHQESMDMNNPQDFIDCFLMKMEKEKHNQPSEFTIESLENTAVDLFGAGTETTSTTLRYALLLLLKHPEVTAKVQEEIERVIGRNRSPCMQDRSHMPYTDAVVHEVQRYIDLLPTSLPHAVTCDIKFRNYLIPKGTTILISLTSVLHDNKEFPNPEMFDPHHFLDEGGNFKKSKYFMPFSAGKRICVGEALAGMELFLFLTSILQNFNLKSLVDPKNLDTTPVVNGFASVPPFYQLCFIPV

For `O=C1CCc2cc(-c3cccnc3)cc3c2N1CC3`, the half-life (in general, the time in which the quantity being followed falls by half) in data set [1] worked out at 9 min.

In the case of `CCC(=O)N1CCc2cc(-c3cccnc3)ccc21`, at CYP17, the inhibition (in general, the share of the control response that was lost under treatment) at 2 µM was below 7%. Also, the inhibition in data set [2] was 66%; against CYP11B1, 0.8%. Further, the inhibition at 0.5 µM against CYP19 is below 7%.

With `O=C(CCCl)N1CCc2cc(-c3cccnc3)ccc21`, the IC50 in data set [3] and in data set [4] was above 5 µM each time. For the same molecule, the inhibition in [2] is 7%; against CYP11B1, 6%.

Consider `COc1ccc(C(=O)N2CCc3cc(-c4cccnc4)ccc32)cc1`, for which the inhibition was 26% in data set [2] and 1.6% against CYP11B1. Further, in data set [4], the IC50 (in general, the concentration that inhibits the measured activity by half) was above 5 µM.

In the case of `O=C(Cc1ccccc1)N1CCc2cc(-c3cccnc3)ccc21`, the half-inhibitory concentration (IC50) in data set [3] was above 5 µM; in [4], 1.52 µM. Also, the inhibition in data set [2] came to 2.2%; on CYP11B1 it was 26%.

As for `CCC(=O)N1CCc2cc(-c3cncc4ccccc34)ccc21`, the IC50 at Cytochrome P450 2C9, on Cytochrome P450 1A2, on Cytochrome P450 2C19, at Cytochrome P450 3A4 and on Cytochrome P450 2D6 was above 50 µM in each case. Also, the microsomal CLint in data set [5] stood at 91 µL/min/mg. The inhibition at 2 µM on CYP17 is below 7%. Also, the inhibition in data set [2] is 100%; on CYP11B1, 39%. Moreover, the inhibition at 0.5 µM against CYP19 was below 7%. The same molecule registered a half-life in data set [1] of 15 min.

In the case of `O=C(C1CC1)N1CCc2cc(-c3cncc4ccccc34)ccc21`, the IC50 in data set [3] was 0.03 µM; in [4], 3.72 µM. On CYP17, this molecule returned an inhibition at 2 µM below 7%. The inhibition in [2] is 98%; at CYP11B1 it was 29%. Further, the inhibition at 0.5 µM against CYP19 was below 7%.

For `CC(C)C(=O)N1CCc2cc(-c3cncc4ccccc34)ccc21`, the IC50 in [3] is 0.152 µM; in [4] it was 6.09 µM. On CYP17, this molecule had an inhibition at 2 µM below 7%. The inhibition in data set [2] was found to be 90%; against CYP11B1 it was 11%. This molecule also came in with an inhibition at 0.5 µM against CYP19 below 7%.

As to `CC(=O)N1CCc2cc(-c3cncc(F)c3)ccc21`, the IC50 in [3] worked out at 0.061 µM; in [4], 6.81 µM. At CYP17, the inhibition at 2 µM is below 7%. In addition, the inhibition amounted to 93% in data set [2] and 11% at CYP11B1. On CYP19, this molecule had an inhibition at 0.5 µM below 7%.

`COc1cncc(-c2ccc3c(c2)CCN3C(C)=O)c1` had an inhibition at 2 µM against CYP17 below 7%. Further, the inhibition in data set [2] turned out to be 100%; at CYP11B1, 48%. At CYP19, the inhibition at 0.5 µM was below 7%.

For `CC(=O)N1CCc2cc(-c3cnccc3C)ccc21`, the half-inhibitory concentration (IC50) on Cytochrome P450 2C9, on Cytochrome P450 1A2, at Cytochrome P450 2C19, on Cytochrome P450 3A4 and at Cytochrome P450 2D6 was above 50 µM each time. Moreover, the microsomal CLint in data set [5] came to 81 µL/min/mg. Also, at CYP17, the inhibition at 2 µM was below 7%. Further, the inhibition came out at 100% in [2] and 70% at CYP11B1. The same molecule registered an inhibition at 0.5 µM on CYP19 below 7%. Moreover, the half-life in data set [1] worked out at 17 min.

Take `CC(=O)n1ccc2cc(-c3cccnc3)ccc21`: the inhibition at 2 µM against CYP17 is below 7%. The inhibition in data set [2] worked out at 98%; against CYP11B1, 25%. This molecule gave an inhibition at 0.5 µM at CYP19 below 7%.
